Assay [1] concerns the target T1, RPS6K1 (Homo sapiens (Human), UniProt P23443). The assay can be described thus: High-throughput screening and IC50 determination for inhibition of RPS6K1 (FRET based assay by ThermoFisher). The settings on record: dose response curve. The format is biochemical. The text has this: These three compounds were then subjected to IC50 value determination (dose response curve) using the same FRET based assay by ThermoFisher (Table 5).

Assay [2] concerns the target T1, RPS6K1. The description is as above. The format is biochemical. The following applies: table head prints 10 µM; text says 10 μM concentration.
Assay [3] deals with HER2 positive breast cancer cell line SKBR3. The assay can be described thus: MTT assay growth inhibition. The format is cell-based. The following applies: for IC50: Homo sapiens; for growth inhibition: SKBR3, MTT, FIG. 1A. From the text:
(§1) Cell viability assays used the methods outlined in an earlier publication: Identification of New Mono/Dihydroxynaphthoquinone as Lead Agents that Inhibit the Growth of Refractive and Triple-negative Breast Cancer Cell lines. Schroeder, R.; Sfondouris, M.; Goyal, N.; Komati, R.; Weerathunga, A.; Gettridge, C.; Stevens, C. L. K.; Jones, F. E.; Sridhar, J. ACS Omega, 2019 Jun 19. 4(6):10610-10619.
(§2) RPS6K1 is known to play a critical role in several cancers including HER2 positive breast cancer, ER positive breast cancer, prostate cancer and small cell lung cancer. To verify whether RPS6K1 inhibitors of the instant disclosure could inhibit growth of these types of cancers, MTT assays were performed using the HER2 positive breast cancer cell line SKBR3, ER positive breast cancer cell line MCF7, and the prostate cancer cell line DU-145. The MTT assay is a colorimetric assay for assessing cell metabolic activity. NAD(P)H-dependent cellular oxidoreductase enzymes may, under defined conditions, reflect the number of viable cells present. These enzymes are capable of reducing the tetrazolium dye MTT 3-(4,5-dimethylthiazol-2-yl)-2,5-diphenyltetrazolium bromide to its insoluble formazan, which has a purple color.
(Tetrazolium assays rely on reduction of a dye to a coloured formazan, in cell work by metabolically active cells.)

Assay [4] deals with ER positive breast cancer cell line MCF7. Put plainly: MTT assay growth inhibition. The format is cell-based. The settings on record: FIG. 1B.
From the text: as §1, §2

Assay [5] deals with prostate cancer cell line DU-145. Put plainly: MTT assay growth inhibition. The following applies: DU-145, MTT, FIG. 1C. The format is cell-based.
From the text: as §1, §2

Where [6] appears, read: SK-BR-3, SKBR3 breast cancer cell line, MTT, read-out: IC50 values of growth inhibition.

Molecules are shown by their SMILES. Read-outs that look alike come from different tables or passages of the source.

T1 sequence (P23443 whole entry): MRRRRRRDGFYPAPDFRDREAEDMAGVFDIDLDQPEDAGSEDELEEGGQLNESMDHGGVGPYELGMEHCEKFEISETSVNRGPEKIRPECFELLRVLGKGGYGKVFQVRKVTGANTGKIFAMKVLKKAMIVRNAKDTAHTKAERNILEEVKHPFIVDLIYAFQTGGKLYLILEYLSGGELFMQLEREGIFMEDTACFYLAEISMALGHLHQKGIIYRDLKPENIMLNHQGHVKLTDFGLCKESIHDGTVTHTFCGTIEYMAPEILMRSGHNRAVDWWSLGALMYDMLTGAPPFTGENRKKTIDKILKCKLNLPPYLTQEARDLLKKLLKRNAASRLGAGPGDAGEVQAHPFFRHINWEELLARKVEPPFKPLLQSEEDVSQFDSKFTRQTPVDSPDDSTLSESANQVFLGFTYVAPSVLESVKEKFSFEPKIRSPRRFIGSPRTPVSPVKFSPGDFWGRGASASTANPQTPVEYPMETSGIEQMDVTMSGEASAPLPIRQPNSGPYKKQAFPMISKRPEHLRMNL

As to `Nc1cc(NC(=O)c2ccccc2)cc2c1C(=O)NC2=O` [RJ-19], the 50% inhibitory concentration (IC50) (in general, the point on the concentration scale where inhibition reaches its midpoint) at RPS6K1 [1] is 3.48 µM; in assay [3] (setting [6]) it was 3.3 µM. Moreover, the “RPS6K1% inhibition at 10 µM compound concentration” value (shortened to “RPS6K1% inhibition”) on RPS6K1 [2] is reported as 71%. In addition, the “growth inhibition” value in assay [3] is “showed inhibition”; in assay [4] it was “not as effective”.
As for `Nc1cc(NC(=O)c2ccccc2Br)cc2c1C(=O)NC2=O` [RJ-22], the IC50 against RPS6K1 [1] was over 2.78 µM; in assay [3] (setting [6]) it was 1.9 µM. For the same molecule, the “RPS6K1% inhibition” value at RPS6K1 [2] worked out at 86%. For the same molecule, the “growth inhibition” value in assay [5], in assay [3] and in assay [4] was “excellent growth inhibition” throughout.
As for `Nc1cc(NC(=O)c2cc([N+](=O)[O-])cc([N+](=O)[O-])c2)cc2c1C(=O)NC2=O` [RJ-28], the half-maximal inhibitory concentration (IC50) at RPS6K1 [1] was determined as 2.56 µM; in assay [3] (SK-BR-3, read-out: IC50 values of growth inhibition), 4.7 µM. Moreover, the “RPS6K1% inhibition” value on RPS6K1 [2] is on record as 79%. The “growth inhibition” value in assay [5], in assay [3] and in assay [4] was “excellent growth inhibition” each time.

For the origin of these results see US11912660B2, “S6K1 protein kinase inhibitors as cancer therapeutics” (Xavier University of Louisiana, priority 2020, dated 2024).
